Results published in patent US9815788B2, “Anti-angiogenic compounds” (University College Dublin National University of Ireland, …, priority 2012, dated 2017).

Columns and labels:
[1] = target: T1, cysteinyl-leukotriene CysLT1 (Cavia porcellus, UniProt Q2NNR5); assay: Ex vivo cysteinyl leukotriene guinea pig lung strip assay; conditions: 30 μM, 3 nM leukotriene D4
T1 construct: a lung strip obtained from Duncan Hartley derived male or female guinea pigs; from tissue; host or cells: guinea pig lung strip
T1 sequence (Q2NNR5 1-340): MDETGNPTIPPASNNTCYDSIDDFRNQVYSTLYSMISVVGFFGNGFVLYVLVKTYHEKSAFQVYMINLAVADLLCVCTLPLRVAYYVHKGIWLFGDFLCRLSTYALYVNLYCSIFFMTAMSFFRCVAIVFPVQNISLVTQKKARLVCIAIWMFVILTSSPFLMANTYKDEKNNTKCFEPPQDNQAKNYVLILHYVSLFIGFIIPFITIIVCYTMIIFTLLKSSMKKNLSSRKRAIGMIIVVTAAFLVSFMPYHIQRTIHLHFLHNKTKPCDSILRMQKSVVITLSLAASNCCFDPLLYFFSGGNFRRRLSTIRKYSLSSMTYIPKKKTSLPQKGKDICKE
Method: (§1) FIG. 15 tables the percentage inhibition by compounds 11B_CC11_HCl and 11B_CC16_HCl on the cysteinyl leukotriene pathway in in vitro and ex vivo assays. […] For in vitro cysteinyl leukotriene cell-based assays 11B_CC11_HCl and 11B_CC16_HCl, were tested at 30 μM concentration in duplicate, in a single experiment for their ability to inhibit the calcium mobilisation response of the CysLT1 receptor to 0.1 nM leukotriene D4 in CHO cells over-expressing the CysLT1 receptor or the calcium mobilisation response of the CysLT2 receptor to 30 nM of leukotriene C4 in HEK 293 cells over expressing the CysLT2 receptor.
(§2) Target profiling using Cerep and Eurofins/Panlabs profiling screens was undertaken using 11B_CC11_HCl and 11B_CC16_HCl in order to investigate the mechanism of action. […] Test substance (30 LM)-induced isometrically recorded contraction by 50 percent or more within 5 min, relative to control 3 nM leukotriene D4 response, indicates possible cysteinyl-leukotriene LT1 receptor agonist activity. […] To measure inhibition of cysteinyl leukotriene 1 (CysLT1 [LTD4]) and cysteinyl leukotriene 2 (CysLT2 [LTC4]) receptor activity, calcium mobilisation was measured using Fluor-3-loaded CHO cells (for cysLT1 assays) or HEK-293 cells (for CysLT2 assays) which stably express either the CysLT1 or CysLT2 receptors. […]

CysLT1 receptor = target: T2, CysLT1 receptor (Homo sapiens, UniProt Q9Y271); assay: CysLT1 calcium mobilisation assay in CHO cells; format: cell-based; conditions: 0.1 nM LTD4, CHO cells expressing CysLT1, read-out: inhibition of calcium mobilisation (CysLT1 antagonism)
T2 construct: host or cells: CHO cells
T2 sequence (Q9Y271 1-337): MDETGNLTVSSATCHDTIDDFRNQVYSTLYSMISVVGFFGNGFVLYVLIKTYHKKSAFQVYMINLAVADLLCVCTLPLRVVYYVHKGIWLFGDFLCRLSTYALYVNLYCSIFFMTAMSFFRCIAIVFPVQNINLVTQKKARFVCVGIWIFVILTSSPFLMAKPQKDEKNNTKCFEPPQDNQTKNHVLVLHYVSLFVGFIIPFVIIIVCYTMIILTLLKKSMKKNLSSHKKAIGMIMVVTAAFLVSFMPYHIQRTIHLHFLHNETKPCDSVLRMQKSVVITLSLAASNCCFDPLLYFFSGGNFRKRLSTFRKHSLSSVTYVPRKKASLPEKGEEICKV
Method: as §1, §2

CysLT2 receptor = target: T3, CysLT2 receptor (Homo sapiens, UniProt Q9NS75); assay: CysLT2 calcium mobilisation assay in HEK 293 cells; format: cell-based; conditions: HEK293, 30 nM LTC4, HEK-293 cells expressing CysLT2, read-out: inhibition of calcium mobilisation (CysLT2 antagonism)
T3 construct: host or cells: HEK 293 cells
T3 sequence (Q9NS75 1-346): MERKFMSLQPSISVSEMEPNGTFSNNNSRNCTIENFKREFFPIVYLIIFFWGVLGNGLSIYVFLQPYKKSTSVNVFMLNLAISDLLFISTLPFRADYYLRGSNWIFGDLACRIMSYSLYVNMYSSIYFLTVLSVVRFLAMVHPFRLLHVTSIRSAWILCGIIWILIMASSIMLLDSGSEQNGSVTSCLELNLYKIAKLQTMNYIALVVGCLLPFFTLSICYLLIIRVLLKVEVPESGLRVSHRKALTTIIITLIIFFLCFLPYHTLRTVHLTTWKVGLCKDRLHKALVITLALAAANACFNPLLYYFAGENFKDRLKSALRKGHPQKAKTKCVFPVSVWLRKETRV
Method: as §1, §2

Cl.Oc1ccccc1C#Cc1ccc2ccccc2n1 [Compound 11B_CC16_HCl, 2-Quinolin-2-yl-ylethynyl-phenol HCl salt]
reduction of the leukotriene D4-induced contractile response [1]: 100%
inhibition at 30 µM (CysLT1 receptor): 137%
inhibition at 30 µM (CysLT2 receptor): 48%
